According to patent US12673081B2, “Traditional CHINESE medicine compound composition with immune bidirectional regulation effect and preparation method and applications thereof” (Chenland Nutritionals Inc., priority 2020, dated 2026):

What was measured:
[1] = test system: guinea pig model with allergic rhinitis; assay: Allergic rhinitis experiment: number and time points of deaths in each group; type: in vivo; conditions: surviving guinea pigs of 10 in group; D1 41, D2 45, D3 116, D4 116, D5 58, D6 116, D7 233, D8 16 mg/kg
Source text: 100 guinea pigs were divided into 20 cages with 5 guinea pigs in each cage. After 7 days of adaptive growth without abnormalities, 90 guinea pigs were used for the construction and induction of allergic rhinitis model, and the remaining 10 guinea pigs were used for normal control. During the whole experiment, the animals were looked after and treated in strict accordance with the animal ethics law.
(§1) On the day of modeling, drugs were given by gavage. Each guinea pig was given once a day, and the Placebo group was given equal volume of drug solution every day for 4 weeks, i.e. 28 days.

[2] = test system: guinea pig model with allergic rhinitis; assay: Allergic rhinitis experiment: symptom observation (nose scratching, sneezing, symptom score) after OVA nasal instillation; type: in vivo; conditions: guinea pigs, gavage 28 days, D1 41, D2 45, D3 116, D4 116, D5 58, D6 116, D7 233, D8 16 mg/kg
Source text: as §1

[3] = test system: eosinophils in nasal lavage solution; assay: Counting of eosinophils in nasal lavage solution; type: in vivo, guinea pig; conditions: guinea pigs
Protocol: (§2) 1) After scoring on the second day after the last administration, guinea pigs were anesthetized by intraperitoneal injection of 10% chloral hydrate with the anesthetic dosage of 0.35 ml/100 g;
2) The guinea pig was fixed in a supine and low head position, the normal saline was slowly dropped into one nasal cavity at the rate of 1 ml/min, and the contralateral nasal cavity was continuously pumped with low negative pressure;
3) A small amount of the recovered lavage solution was taken immediately and put into a leukocyte counting plate to count the total number of leukocytes;
4) The remaining lavage solution was added with EDTA ([…]) and centrifuged at 14000 rpm at 4° C. for 15 minutes. And the supernatant was stored at −80° C. for use.

nasal mucosa = assay: HE staining of final nasal mucosa of guinea pigs; type: in vivo, guinea pig; conditions: gavage 28 days, D1 41, D2 45, D3 116, D4 116, D5 58, D6 116, D7 233, D8 16 mg/kg
Protocol: as §2
2) After peeling off the nasal skin, the maxilla together with the nasal cavity were removed, and the bilateral nasal cavities were completely separated from the middle incisors;
3) The nasal mucosa was carefully removed and fixed with 4% paraformaldehyde for HE staining;
4) All the HE stained pathological sections were observed under the light microscope.
The mucosal tissues fixed in 4% glutaraldehyde solution were taken out and made into 5 μm thick paraffin sections for HE staining.
1) 60%, 70%, 80% and 90% gradient ethanol of the fixed sample were used to dehydrate for 8 h respectively;
2) 100% ethanol I and II were used to dehydrated for 1 h respectively;
3) The xylene I and II were used to make the specimens transparent for 15 min respectively;
4) The specimens were soaked in liquid paraffin and placed in a 65° C. oven for 2 h;
5) The soaked paraffin specimens were taken out and embedded in paraffin;
6) The paraffin was cut into 5 μm thick sections and subjected to HE staining.
1) Xylene I and II for 15 min respectively;
2) Gradient ethanol hydration to distilled water;
3) Hematoxylin staining for 5 min;
4) Differentiation with 1% hydrochloric acid and ethanol for 1 min; […]

[4] = test system: histamine, IgE, IL-4, IFN-γ, thromboxane B2 and leukotriene; assay: Final plasma cytokines of guinea pigs by ELISA; type: in vivo, guinea pig
Protocol: as §2
2) The abdominal cavity was opened, and a 5 ml sterile syringe was inserted into the abdominal vein of the guinea pig, and the venous blood was drawn;
(§3) 3) The drawn venous blood was put into a heparin tube, mixed well, and left in a chromatography freezer at 4° C. overnight.
(§4) 4) After centrifugation at 14000 rpm at 4° C. for 15 minutes, the supernatant was taken and stored at −80° C. for use.
1.6 The expression levels of cytokines in guinea pig serum and nasal lavage solution were detected by ELISA. The final serum and nasal lavage solution were taken for the determination of histamine, IgE, IL-4, IFN-γ, thromboxane B2 and leukotriene.
(§5) 1) taking out the ELISA kit from the refrigerator and balancing it at room temperature for 20 min;
(§6) 3) after sealing the film with a film sealing plate, placing it in a 37° C. incubator for incubation for 30 min;
4) discarding the liquid in the wells, gently spin drying it, and adding 50 μL biotin labeled antibody working solution to each well, and incubating in a 37° C. incubator for 30 min;
(§7) 5) carefully removing the sealing film, pouring out the liquid in the wells, gently spin drying it, adding washing liquid into each well, standing at room temperature for 30 seconds and then pouring it out, repeating this operation for 5 times and gently patting it dry;
(§8) 6) adding 50 μL horseradish peroxidase labeled avidin working solution to each well, and incubating in a 37° C. incubator for 30 min;
(§9) 7) pouring out the liquid in the wells, gently spin drying it, adding washing liquid into each well, standing at room temperature for 30 seconds and then pouring it out, repeating this operation for 5 times and gently patting it dry; and
8) adding 100 μL color developing solution to each well in turn, and developing color in a 37° C. incubator without light for […];
9) adding […] termination solution to each well to terminate the reaction, then zeroing the blank wells and measure the absorbance (OD value) of each well at 450 nm wavelength, where the determination shall be carried out within 15 min after the termination solution is added.

[5] = test system: IL-1β, IFN-γ, IgG, IgM, sIgA; assay: Cold model rats: cytokines in serum and saliva by ELISA; type: in vivo, rat; conditions: SD rats cold model, gavage 28 days, Sample-1 150, Sample-2 75, Sample-3/-4/-5 150, Sample-6 30 mg/kg
Protocol: 1) On the second day after the last administration, the rats were anesthetized by intraperitoneal injection of 10% chloral hydrate with the anesthetic dosage of 0.35 ml/100 g;
2) The abdominal cavity was opened, and a 5 ml sterile syringe was inserted into the abdominal vein of the rats, and the venous blood was drawn:
as §3, §4
2) SD rats were fixed in the supine and low head position, sterile cotton swabs were inserted into the upper respiratory tract of rats, dipped in rat saliva, and immediately placed in precooled normal saline and stored at −80° C. for use.
The final serum was used for IL-1β, IL-6, IL-12, IFN-γ, IgG, IgM, and saliva was used for the determination of sIgA. The determination steps were as follows:
as §5, §6
4) discarding the liquid in the wells, gently drying it, and adding 50 μL biotin labeled antibody working solution to each well, and incubating in a 37° C. incubator for 30 min;
as §7, §8, §9
8) adding […] color developing solution to each well in turn, and developing color in a 37° C. incubator without light for 15 min;
9) adding 50 μL termination solution to each well to terminate the reaction, then zeroing the blank wells and measure the absorbance (OD value) of each well at 450 nm wavelength, where the determination shall be carried out within 15 min after the termination solution is added.

[6] = Cold model of immunocompromised rats induced by cyclophosphamide: body weight; type: in vivo, rat; conditions: SD rats, Sample-1 150, Sample-2 75, Sample-3/-4/-5 150, Sample-6 30 mg/kg
Source text: (§10) […] were divided into 20 cages, 5 SD rats in each cage, 2 cages in each group, 1 cage for male and female respectively. After 7 days of adaptive growth, 70 rats were used for drug administration evaluation and the construction of rat upper respiratory tract infection model, and the remaining 10 rats were used for normal control. During the whole experiment, the animals were looked after and treated in strict accordance with the animal ethics law.
(§11) After the adaptive growth, the drug was given by gavage once a day for each SD rat. The Placebo group and the normal control group were given the same volume of drug solution (i.e. normal saline) every day for 4 weeks, i.e. 28 days.
(§12) 1) On the 14th day after gavage administration, rats in the model group were intraperitoneally injected with cyclophosphamide for 3 consecutive days and strengthened once on the 20th day to prepare the immunosuppressive model.
(§13) 2) On the 21st day, after the rats were placed in a low temperature environment overnight (4° C.), the cold symptoms such as burnout, decreased food intake and increased nasal secretion were found, which was regarded as successful modeling.
(§14) 3) During the period of normal administration, the administration was ended on the 28th day, and the rats were killed.
(§15) The body weight of rats was measured once a week. During the administration, the general conditions, behavioral characteristics and death status of rats in each group, such as appetite, hair color and body posture, were observed. Nasal secretion and body temperature were observed ever day.

[7] = test system: cold model of immunocompromised rats; assay: Cold model of immunocompromised rats induced by cyclophosphamide: body temperature; type: in vivo, rat; conditions: SD rats cold model, Sample-1 150, Sample-2 75, Sample-3/-4/-5 150, Sample-6 30 mg/kg
Source text: as §10, §11, §12, §13, §14, §15

[8] = final plasma, gavage 28 days, D1 41, D2 45, D3 116, D4 116, D5 58, D6 116, D7 233, D8 16 mg/kg

**Q.** Which Final number [1] does the source give for `CCOC(=O)N1CCC(=C2c3ccc(Cl)cc3CCc3cccnc32)CC1` [D8, Loratadine] here?
**A.** 8

**Q.** What about the “Number after enhanced sensitization” value [1] of the same compound?
**A.** 8

**Q.** And the “Number after nasal instillation” value [1]?
**A.** 8

**Q.** And the “nose scratching times decreased compared with the model group” value [2]?
**A.** 57.0%

**Q.** What about the “sneeze times decreased compared with the model group” value [2] of the same compound?
**A.** 54.4%

**Q.** And the “Final scoring of symptom observation” value ([2]; score 1-3 per Table 2)?
**A.** 1.50 ± 0.50

**Q.** And the “number of eosinophils in nasal lavage solution decreased compared with the model group” value ([3]; D1 41, D2 45, D3 116, D4 116, D5 58, D6 116, D7 233, D8 16 mg/kg)?
**A.** 52.2%

**Q.** What about the “number of eosinophils in nasal lavage solution compared with the model group” value ([3]; D8 16 mg/kg, p<0.01) of the same compound?
**A.** decreased significantly

**Q.** And the Number of eosinophils ([3]; nasal lavage solution, gavage 28 days, D1 41, D2 45, D3 116, D4 116, D5 58, D6 116, D7 233, D8 16 mg/kg)?
**A.** 3.50 ± 1.12 PCs./ml

**Q.** What about the “pathological analysis of HE stained nasal mucosa” value (nasal mucosa) of the same compound?
**A.** the inflammatory reaction in nasal mucosa of guinea pigs was significantly reduced

**Q.** And the Histamine [4, 8]?
**A.** 23.78 ± 3.86 ng/mL

**Q.** And the IFN-γ [4, 8]?
**A.** 113.74 ± 12.59 pg/mL

**Q.** What about the IL-4 [4, 8] of the same compound?
**A.** 138.64 ± 39.91 pg/mL

**Q.** And the IgE [4, 8]?
**A.** 41.86 ± 7.34 ng/mL

**Q.** And the LTB4 [4, 8]?
**A.** 32.00 ± 6.71 ng/mL

**Q.** And the TXB2 [4, 8]?
**A.** 24.86 ± 4.5 ng/mL

**Q.** And the “contents of TXB2 and TLB4 in nasal lavage solution versus model control group” value ([4]; p<0.05)?
**A.** significant difference compared with the model control group

**Q.** And the “serum IgE content versus model group” value ([4]; significantly different from model group (p<0.05))?
**A.** reduce the serum IgE content

**Q.** Which “serum IFN-γ content” value ([5]; final serum) does the source give for `O=C1O[C@H]([C@@H](O)CO)C(O)=C1O` [Sample-6, VC] here?
**A.** 170.49 ± 21.44 pg/mL

**Q.** What about the “serum IL-β content” value ([5]; final serum) of the same compound?
**A.** 100.12 ± 27.51 pg/mL

**Q.** And the “serum IgG content” value ([5]; final serum)?
**A.** 606.77 ± 259.06 µg/mL

**Q.** What about the “serum IgM content” value ([5]; final serum) of the same compound?
**A.** 177.1 ± 35.59 µg/mL

**Q.** And the “saliva sIgA content” value ([5]; upper respiratory tract saliva)?
**A.** 13.9 ± 4.08 µg/mL

**Q.** And the “weight week 1” value ([6]; week 1)?
**A.** 200.37 ± 8.23 g

**Q.** And the “weight week 2” value ([6]; week 2)?
**A.** 217.99 ± 12.26 g

**Q.** What about the “weight week 3” value ([6]; week 3) of the same compound?
**A.** 193.64 ± 12.51 g

**Q.** And the “weight week 4” value ([6]; week 4)?
**A.** 173.58 ± 7.48 g

**Q.** And the “weight week 0” value ([6]; gavage once a day 28 days, week 0)?
**A.** 184.61 ± 7.84 g

**Q.** And the “temperature Day 15” value ([7]; Day 15)?
**A.** 36.84 ± 0.22

**Q.** And the “temperature Day 16” value ([7]; Day 16)?
**A.** 36.78 ± 0.48

**Q.** What about the “temperature Day 17” value ([7]; Day 17) of the same compound?
**A.** 36.9 ± 0.33

**Q.** What about the “temperature Day 18” value ([7]; Day 18) of the same compound?
**A.** 36.6 ± 0.19

**Q.** And the “temperature Day 19” value ([7]; Day 19)?
**A.** 36.63 ± 0.28

**Q.** What about the “temperature Day 20” value ([7]; Day 20) of the same compound?
**A.** 36.69 ± 0.22

**Q.** And the “temperature Day 21” value ([7]; Day 21)?
**A.** 36.41 ± 0.3

**Q.** And the “temperature Day 22” value ([7]; Day 22)?
**A.** 37.89 ± 0.53

**Q.** And the “temperature Day 23” value ([7]; Day 23)?
**A.** 38.23 ± 0.64

**Q.** What about the “temperature Day 24” value ([7]; Day 24) of the same compound?
**A.** 38.11 ± 0.56

**Q.** And the “temperature Day 25” value ([7]; Day 25)?
**A.** 37.87 ± 0.4

**Q.** What about the “temperature Day 26” value ([7]; Day 26) of the same compound?
**A.** 37.41 ± 0.4

**Q.** And the “temperature Day 27” value ([7]; Day 27)?
**A.** 37.32 ± 0.28

**Q.** And the “temperature Day 28” value ([7]; Day 28)?
**A.** 37.62 ± 0.31
